Assay results as given in patent US20040006236A1, “Diaminopropionic acid derivatives” (priority 1999, published 2004).

Assays:
[1] = molecular target: T1, ICAM-1 binding to immobilized Mac-1 (Homo sapiens, UniProt P05107+P11215); test: Mac-1/ICAM-1 screening assay (solid-phase ELISA); settings: read-out: Mac-1/ICAM-1 Protein-Protein Assay IC50
T1 construct: made in house; host or cells: transfected 293 cells (Mac-1)
In short: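 Competitive solid-phase ELISA: membrane Mac-1 from transfected 293 cells coated at 3 μg/mL in 20 mM Hepes pH 7.2/0.14 M NaCl/1 mM MnCl2; compounds (0.12 nM-20 μM, 1:4 series) plus 5dICAM-Ig (40 μg/mL, added) 2 h at 37° C. Bound ICAM-Ig detected with HRP anti-human IgG Fc, TMB, A450; IC50 reported.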

[2] = tested on: cell-surface Mac-1 adhesion to immobilized fibrinogen (HL-60 cells); test: Mac-1/Fibrinogen cell-based screening assay; parameters: species or system human; settings: Homo sapiens, HL-60, HL-60 cells; read-out: Mac-1/Fgn Cell based Assay IC50
In short: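 Wells coated with fibrinogen and blocked with PVP. Labeled HL-60 cells (2×10^6 cells/mL in RPMI/0.05% BSA/0.2 mM MnCl2) preincubated with DMSO-diluted compounds for 10 min at 37° C, then left to adhere 30 min at 37° C/5% CO2. Unbound cells washed off with TBS.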

T1 sequence (P05107 23-769, other chains not shown): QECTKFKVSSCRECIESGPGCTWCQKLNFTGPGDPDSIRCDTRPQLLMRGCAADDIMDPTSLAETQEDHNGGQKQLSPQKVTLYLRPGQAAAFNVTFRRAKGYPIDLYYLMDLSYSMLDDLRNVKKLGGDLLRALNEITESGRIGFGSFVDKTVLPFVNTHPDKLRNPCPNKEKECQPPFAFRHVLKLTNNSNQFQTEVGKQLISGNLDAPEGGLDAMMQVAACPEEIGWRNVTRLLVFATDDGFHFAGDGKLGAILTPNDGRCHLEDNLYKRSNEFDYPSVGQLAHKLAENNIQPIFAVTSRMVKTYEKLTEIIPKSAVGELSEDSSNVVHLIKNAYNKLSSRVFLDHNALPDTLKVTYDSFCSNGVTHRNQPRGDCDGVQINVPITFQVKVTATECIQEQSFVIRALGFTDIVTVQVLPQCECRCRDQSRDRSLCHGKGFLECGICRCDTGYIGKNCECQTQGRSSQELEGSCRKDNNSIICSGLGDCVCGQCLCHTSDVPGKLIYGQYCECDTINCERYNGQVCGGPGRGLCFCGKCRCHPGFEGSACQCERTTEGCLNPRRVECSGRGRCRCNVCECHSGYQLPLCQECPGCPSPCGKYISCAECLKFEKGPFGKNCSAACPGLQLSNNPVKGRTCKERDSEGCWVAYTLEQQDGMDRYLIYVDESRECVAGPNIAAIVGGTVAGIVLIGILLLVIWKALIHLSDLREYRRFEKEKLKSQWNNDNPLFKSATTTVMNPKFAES

IC50 [1]: 25 nM
IC50 [2]: 312 nM
Structure (SMILES): O=C(CC1CCCC1)NC[C@H](NC(=O)c1ccc(C(=O)NCc2cccc(O)c2)cc1Cl)C(=O)O [Example 77]
